Target: recombinant human SAE enzyme (Homo sapiens (Human), UniProt Q9UBT2)
Assay: SAE HTRF enzyme assay
Type: biochemical
Conditions: for inhibition at 0.111 µM: read-out: Percent Inhibition; for IC50: class symbols A/B/C
Summary of the method: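 HTRF read-out using Eu-cryptate anti-Flag and allophycocyanin anti-GST antibodies, added with EDTA stop buffer and read after 2 h at 24 °C. The preceding reaction ran 105 min at 24 °C: 0.11 nM recombinant SAE, 0.5 μM ATP, Sumo-Flag, Ubc9-GST, pH 7.5. Values given as single-concentration inhibition or IC50.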

Chain of recombinant human SAE enzyme (Q9UBT2 whole entry): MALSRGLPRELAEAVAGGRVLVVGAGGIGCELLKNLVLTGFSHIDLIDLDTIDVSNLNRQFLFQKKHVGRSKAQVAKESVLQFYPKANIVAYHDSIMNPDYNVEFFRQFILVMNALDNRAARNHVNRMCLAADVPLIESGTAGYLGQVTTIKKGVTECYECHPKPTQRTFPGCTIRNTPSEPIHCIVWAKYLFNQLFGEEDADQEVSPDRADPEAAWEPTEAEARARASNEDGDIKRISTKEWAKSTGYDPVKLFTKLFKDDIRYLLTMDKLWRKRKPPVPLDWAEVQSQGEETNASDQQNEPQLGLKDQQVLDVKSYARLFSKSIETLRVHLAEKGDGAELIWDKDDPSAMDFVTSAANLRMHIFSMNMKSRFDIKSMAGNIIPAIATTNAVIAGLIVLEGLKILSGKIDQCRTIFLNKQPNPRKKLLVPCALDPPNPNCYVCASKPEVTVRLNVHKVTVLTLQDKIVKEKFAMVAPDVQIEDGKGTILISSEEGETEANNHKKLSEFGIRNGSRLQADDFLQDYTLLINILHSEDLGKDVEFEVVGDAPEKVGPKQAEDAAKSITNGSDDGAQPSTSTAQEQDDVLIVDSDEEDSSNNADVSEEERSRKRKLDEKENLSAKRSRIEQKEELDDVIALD
Chain of recombinant human SAE enzyme (Q9UBE0 whole entry partner): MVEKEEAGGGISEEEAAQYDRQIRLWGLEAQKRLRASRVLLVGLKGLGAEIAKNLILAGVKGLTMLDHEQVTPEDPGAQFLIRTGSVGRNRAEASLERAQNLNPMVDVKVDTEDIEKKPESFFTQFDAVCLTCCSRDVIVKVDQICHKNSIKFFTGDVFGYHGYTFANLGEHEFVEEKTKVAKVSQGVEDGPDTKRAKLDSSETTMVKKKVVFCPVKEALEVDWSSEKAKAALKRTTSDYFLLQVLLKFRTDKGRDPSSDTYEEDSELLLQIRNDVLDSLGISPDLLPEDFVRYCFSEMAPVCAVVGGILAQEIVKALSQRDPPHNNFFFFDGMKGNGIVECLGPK

Cc1ccccc1OCc1csc(C(=O)c2cncnc2N[C@@H]2C[C@H](COS(N)(=O)=O)[C@@H](O)C2)c1 [I-131, [(1R,2S,4R)-2-hydroxy-4-{[5-({4-[(2-methylphenoxy)methyl]-2-thienyl}carbonyl)pyrimidin-4-yl]amino}cyclopentyl]methyl sulfamate] gave an inhibition at 0.111 µM (Concentration 0.111 μM) of 96% and an IC50 of less than 10 nM.
For Cc1ccc2ccn(Cc3csc(C(=O)c4cncnc4N[C@@H]4C[C@H](COS(N)(=O)=O)[C@@H](O)C4)c3)c2c1 [I-132, [(1R,2S,4R)-2-hydroxy-4-{[5-({4-[(6-methyl-1H-indol-1-yl)methyl]-2-thienyl}carbonyl)pyrimidin-4-yl]amino}cyclopentyl]methyl sulfamate], the inhibition at 0.111 µM (Concentration 0.111 μM) was 96% and the IC50 was less than 10 nM.
NS(=O)(=O)OC[C@H]1C[C@@H](Nc2ncncc2C(=O)c2ccc(-c3ccccc3)o2)[C@H](O)[C@@H]1O [I-134, [(1R,2R,3S,4R)-2,3-dihydroxy-4-{[5-(5-phenyl-2-furoyl)pyrimidin-4-yl]amino}cyclopentyl]methyl sulfamate] gave an inhibition at 0.111 µM (Concentration 0.111 μM) of 94% and an IC50 of less than 10 nM.
Cc1sc(C(=O)c2cncnc2N[C@@H]2C[C@H](COS(N)(=O)=O)[C@@H](O)C2)cc1Sc1ccccc1 [I-137, {(1R,2S,4R)-2-hydroxy-4-[(5-{[5-methyl-4-(phenylsulfanyl)-2-thienyl]carbonyl}pyrimidin-4-yl)amino]cyclopentyl}methyl sulfamate] gave an inhibition at 0.111 µM (Concentration 0.111 μM) of 95%.
In the case of CN(Cc1csc(C(=O)c2cncnc2N[C@@H]2C[C@H](COS(N)(=O)=O)[C@@H](O)C2)c1)c1cccc(Cl)c1 [I-138, [(1R,2S,4R)-4-({5-[(4-{[(3-Chlorophenyl)(methyl)amino]methyl}-2-thienyl)carbonyl]pyrimidin-4-yl}amino)-2-hydroxycyclopentyl]methyl sulfamate], the inhibition at 0.111 µM (Concentration 0.111 μM) is reported as 96% and the IC50 is reported as less than 10 nM.
Work on NS(=O)(=O)OC[C@H]1C[C@@H](Nc2ncncc2C(=O)c2cc(Cc3ccccc3)c(Cc3ccccc3)o2)C[C@@H]1O [I-139, [(1R,2S,4R)-4-{[5-(4,5-dibenzyl-2-furoyl)pyrimidin-4-yl]amino}-2-hydroxycyclopentyl]methyl sulfamate] yielded an inhibition at 0.111 µM (Concentration 0.111 μM) of 94% and an IC50 of less than 10 nM.
In the case of NS(=O)(=O)OC[C@H]1C[C@@H](Nc2ncncc2C(=O)c2cc(CC3=CCCCC3)cs2)C[C@@H]1O [I-140, {(1R,2S,4R)-4-[(5-{[4-(Cyclohex-1-en-1-ylmethyl)-2-thienyl]carbonyl}pyrimidin-4-yl)amino]-2-hydroxycyclopentyl}methyl sulfamate], the inhibition at 0.111 µM (Concentration 0.111 μM) is reported as 93% and the IC50 is reported as less than 10 nM.
NS(=O)(=O)OC[C@H]1C[C@@H](Nc2ncncc2C(=O)c2cc(CO)c(Cc3cccc(Cl)c3)s2)C[C@@H]1O [I-142, {(1R,2S,4R)-4-[(5-{[5-(3-chlorobenzyl)-4-(hydroxymethyl)-2-thienyl]carbonyl}pyrimidin-4-yl)amino]-2-hydroxycyclopentyl}methyl sulfamate] gave an inhibition at 0.111 µM (Concentration 0.111 μM) of 94% and an IC50 of less than 10 nM.
With Cc1sc(C(=O)c2cncnc2N[C@@H]2C[C@H](COS(N)(=O)=O)[C@@H](O)C2)cc1Sc1cccc(Cl)c1 [I-143, [(1R,2S,4R)-4-{[5-({4-[(3-chlorophenyl)sulfanyl]-5-methyl-2-thienyl}carbonyl)pyrimidin-4-yl]amino}-2-hydroxycyclopentyl]methyl sulfamate] the inhibition at 0.111 µM (Concentration 0.111 μM) was 94% and the IC50 was less than 10 nM.
NS(=O)(=O)OC[C@H]1C[C@@H](Nc2ncncc2C(=O)c2cc(Cc3ccccc3)c(Cc3ccccc3)s2)C[C@@H]1O [I-144, [(1R,2S,4R)-4-({5-[(4,5-Dibenzyl-2-thienyl)carbonyl]pyrimidin-4-yl}amino)-2-hydroxycyclopentyl]methyl sulfamate] gave an inhibition at 0.111 µM (Concentration 0.111 μM) of 93% and an IC50 of less than 10 nM.
Work on Cc1sc(C(=O)c2cncnc2N[C@@H]2C[C@H](COS(N)(=O)=O)[C@@H](O)C2)cc1Sc1cccc(C(F)(F)F)c1 [I-145, [(1R,2S,4R)-2-hydroxy-4-({5-[(5-methyl-4-{[3-(trifluoromethyl)phenyl]sulfanyl}-2-thienyl)carbonyl]pyrimidin-4-yl}amino)cyclopentyl]methyl sulfamate] yielded an inhibition at 0.111 µM (Concentration 0.111 μM) of 93% and an IC50 of less than 10 nM.
With NS(=O)(=O)OC[C@H]1C[C@@H](Nc2ncncc2C(=O)c2cc(CCc3cccc(Cl)c3)cs2)C[C@@H]1O [I-146, [(1R,2S,4R)-4-{[5-({4-[2-(3-chlorophenyl)ethyl]-2-thienyl}carbonyl)pyrimidin-4-yl]amino}-2-hydroxycyclopentyl]methyl sulfamate] the inhibition at 0.111 µM (Concentration 0.111 μM) was 94% and the IC50 was less than 10 nM.
Molecule NS(=O)(=O)OC[C@H]1C[C@@H](Nc2ncncc2C(=O)c2cc(CSc3ccccc3Cl)cs2)C[C@@H]1O [I-147, [(1R,2S,4R)-4-({5-[(4-{[(2-chlorophenyl)sulfanyl]methyl}-2-thienyl)carbonyl]pyrimidin-4-yl}amino)-2-hydroxycyclopentyl]methyl sulfamate] has an inhibition at 0.111 µM (Concentration 0.111 μM) of 94% and an IC50 of less than 10 nM.
For Cc1sc(C(=O)c2cncnc2N[C@@H]2C[C@H](COS(N)(=O)=O)[C@@H](O)C2)cc1Cn1cc(Br)cc1C#N [I-148, [(1R,2S,4R)-4-{[5-({4-[(4-bromo-2-cyano-1H-pyrrol-1-yl)methyl]-5-methyl-2-thienyl}carbonyl)pyrimidin-4-yl]amino}-2-hydroxycyclopentyl]methyl sulfamate], the inhibition at 0.111 µM (Concentration 0.111 μM) was 91% and the IC50 was less than 10 nM.
With NS(=O)(=O)OC[C@H]1C[C@@H](Nc2ncncc2C(=O)c2cc(Cc3cccc(Cl)c3Cl)cs2)C[C@@H]1O [I-155, {(1R,2S,4R)-4-[(5-{[4-(2,3-dichlorobenzyl)-2-thienyl]carbonyl}pyrimidin-4-yl)amino]-2-hydroxycyclopentyl}methyl sulfamate] the inhibition at 0.111 µM (Concentration 0.111 μM) was 92% and the IC50 was less than 10 nM.
Molecule CCOc1ccccc1OCc1csc(C(=O)c2cncnc2N[C@@H]2C[C@H](COS(N)(=O)=O)[C@@H](O)C2)c1 [I-156, [(1R,2S,4R)-4-{[5-({4-[(2-ethoxyphenoxy)methyl]-2-thienyl}carbonyl)pyrimidin-4-yl]amino}-2-hydroxycyclopentyl]methyl sulfamate] has an inhibition at 0.111 µM (Concentration 0.111 μM) of 92% and an IC50 of less than 10 nM.
Molecule NS(=O)(=O)OC[C@H]1C[C@@H](Nc2ncncc2C(=O)c2cc(Cc3ccc(Cl)cc3)cs2)C[C@@H]1O [I-157, {(1R,2S,4R)-4-[(5-{[4-(4-chlorobenzyl)-2-thienyl]carbonyl}pyrimidin-4-yl)amino]-2-hydroxycyclopentyl}methyl sulfamate] has an inhibition at 0.111 µM (Concentration 0.111 μM) of 92%.
With NS(=O)(=O)OC[C@H]1C[C@@H](Nc2ncncc2C(=O)c2ccc(-c3ccccc3Cl)o2)[C@H](O)[C@@H]1O [I-158, [(1R,2R,3S,4R)-4-({5-[5-(2-chlorophenyl)-2-furoyl]pyrimidin-4-yl}amino)-2,3-dihydroxycyclopentyl]methyl sulfamate] the inhibition at 0.111 µM (Concentration 0.111 μM) was 86%.
For Cc1sc(C(=O)c2cncnc2N[C@@H]2C[C@H](COS(N)(=O)=O)[C@@H](O)C2)cc1CN1CCc2cc(Cl)ccc21 [I-159, [(1R,2S,4R)-4-{[5-({4-[(5-chloro-2,3-dihydro-1H-indol-1-yl)methyl]-5-methyl-2-thienyl}carbonyl)pyrimidin-4-yl]amino}-2-hydroxycyclopentyl]methyl sulfamate], the inhibition at 0.111 µM (Concentration 0.111 μM) was 91% and the IC50 was less than 10 nM.
Cc1nn(Cc2csc(C(=O)c3cncnc3N[C@@H]3C[C@H](COS(N)(=O)=O)[C@@H](O)C3)c2)c2cnccc12 [I-160, [(1R,2S,4R)-2-hydroxy-4-{[5-({4-[(3-methyl-1H-pyrazolo[3,4-c]pyridin-1-yl)methyl]-2-thienyl}carbonyl)pyrimidin-4-yl]amino}cyclopentyl]methyl sulfamate] showed an inhibition at 0.111 µM (Concentration 0.111 μM) of 92% and an IC50 of less than 10 nM.
In the case of NS(=O)(=O)OC[C@H]1C[C@@H](Nc2ncncc2C(=O)c2cc(COc3ccccc3I)cs2)C[C@@H]1O [I-161, [(1R,2S,4R)-2-Hydroxy-4-{[-({4-(2-iodophenoxy)methyl]-2-thienyl}carbonyl)pyrimidin-4-yl]amino}cyclopentyl]methyl sulfamate], the “Percent Inhibition” value (Concentration 0.111 μM) is reported as 91 and the IC50 is reported as less than 10 nM.
Work on NS(=O)(=O)OC[C@H]1C[C@@H](Nc2ncncc2C(=O)c2cc(Cc3ccccc3)c(Cl)s2)[C@@H](F)[C@@H]1O [I-162, [(1R,2R,3R,4R)-4-({5-[(4-Benzyl-5-chloro-2-thienyl)carbonyl]pyrimidin-4-yl}amino) 3-fluoro-2-hydroxycyclopentyl]methyl sulfamate] yielded an inhibition at 0.111 µM (Concentration 0.111 μM) of 91% and an IC50 of 10 to 100 nM.
With NS(=O)(=O)OC[C@H]1C[C@@H](Nc2ncncc2C(=O)c2cc(COc3ccc(Cl)cc3)cs2)C[C@@H]1O [I-163, [(1R,2S,4R)-4-{[5-({4-[(4-chlorophenoxy)methyl]-2-thienyl}carbonyl)pyrimidin-4-yl]amino}-2-hydroxycyclopentyl]methyl sulfamate] the inhibition at 0.111 µM (Concentration 0.111 μM) was 92% and the IC50 was 10 to 100 nM.
Molecule C=C(c1cccc(Br)c1)c1csc(C(=O)c2cncnc2N[C@@H]2C[C@H](COS(N)(=O)=O)[C@@H](O)C2)c1 [I-164, [(1R,2S,4R)-4-{[5-({4-[1-(3-Bromophenyl)vinyl]-2-thienyl}carbonyl)pyrimidin-4-yl]amino)-2-hydroxycyclopentyl]methyl sulfamate] has an inhibition at 0.111 µM (Concentration 0.111 μM) of 92% and an IC50 of 10 to 100 nM.
With NS(=O)(=O)OC[C@H]1C[C@@H](Nc2ncncc2C(=O)c2cc(Cc3ccccc3Cl)cs2)C[C@@H]1O [I-165, {(1R,2S,4R)-4-[(5-{[4-(2-chlorobenzyl)-2-thienyl]carbonyl}pyrimidin-4-yl)amino]-2-hydroxycyclopentyl}methyl sulfamate] the inhibition at 0.111 µM (Concentration 0.111 μM) was 91% and the IC50 was 10 to 100 nM.
With NS(=O)(=O)OC[C@H]1C[C@@H](Nc2ncncc2C(=O)c2cc(CN3CCc4ccccc4C3)cs2)C[C@@H]1O [I-167, {(1R,2S,4R)-4-[(5-{[4-(3,4-dihydroisoquinolin-2(1H)-ylmethyl)-2-thienyl]carbonyl}pyrimidin-4-yl)amino]-2-hydroxycyclopentyl}methyl sulfamate] the inhibition at 0.111 µM (Concentration 0.111 μM) was 89% and the IC50 was 10 to 100 nM.
